Experiments:
ACAT = ACAT Assay (in vitro); format: biochemical; conditions: dose = 10 μM; rat liver microsomes
Procedure: This assay measures the activity of ACAT by measuring the ACAT-mediated transfer of tritiated oleic acid from acyl-CoA to cholesterol to give labelled cholesterol oleate. Rat liver microsomes are used as the source of ACAT. Assays are performed in round bottom microtiterplates using a total incubation volume of 50 μL. Each incubation well receives 10 μL assay buffer (0.5M KHPO4, 10 μM dithiothreitol, pH 7.4), 7.5 μL of 40 mg/mL BSA (Bovine Serum Albumin) and 12.5 μg of microsomal protein. The test compound (in sufficient amount to bring the final concentration to from 0.1 to 25 μM), reference compound, or vehicle control is added and the final volume brought to 47 μL. The microtiterplate is then floated on the surface of a 37° C. water bath for fifteen minutes. Incubations are started by the addition of 3 μL ^3 H-acyl CoA (1 μCi/well, final concentration of 10 μM acyl CoA). The plate is then returned to the water bath for 15 minutes. The incubations are then terminated by application of 15 μL from each incubation to individual lanes on a thin layer plate (Silica Gel GF 20×20 cm). Standards are applied to several lanes so that the cholesterol ester band can be identified. After drying, the plates are eluted with 90:10:1 petroleum ether:ether:HOAc. The standards are visualized via iodine vapor, and the regions corresponding to cholesterol ester are scraped into 7 mL scintillation vials. 4 mL of scintillant are added to each vial, and the radioactivity quantified. Background count is determined by the boiled controls. Full activity is determined by activity in the presence of vehicle. The percent inhibition is calculated by subtracting the background from both control and test samples, and the test value is calculated as a percentage of the control. For IC50 determinations, the inhibition is plotted against drug doses on a log scale and the concentration at which 50% inhibition is obtained is determined.
(§1) Using the assay methods described above, the compounds of Examples 1-9 were tested for in vitro ACAT inhibitory activity and for the ability to lower the level of cholesteryl esters in vivo.

cholesteryl esters = test: In Vivo Assay of Hypolipidemic Agents Using the Hyperlipidemic Hamster; conditions: Mesocricetus auratus, po, 168 h, oral gavage once daily, 7 days, versus control, read-out: % Reduction in cholesteryl esters; for change in vivo at 50 mg/kg: 50 mpk; for change in vivo at 25 mg/kg: 25 mpk
Procedure: In Vivo Assay of Hypolipidemic Agents Using the Hyperlipidemic Hamster
Hamsters are separated into groups of six and given a control cholesterol diet (Pudna Chow #5001 containing 0.5% cholesterol) for seven days. Diet consumption is monitored to determine dietary cholesterol exposure in the face of test compounds. The animals are dosed with the test compound once daily beginning with the initiation of diet. Dosing is by oral gavage of 0.2 mL of corn oil alone (control group) or solution (or suspension) of test compound in corn oil. All animals moribund or in poor physical condition are euthanized. After seven days, the animals are anesthetized by […] of ketamine and sacrificed by decapitation. Blood is collected into vacutainer tubes containing EDTA for plasma lipid analysis and the liver excised for tissue lipid analysis. Data is reported as percent reduction of lipid versus control.
as §1

SMILES	ACAT % Inhibition (ACAT)	change in vivo at 50 mg/kg (cholesteryl esters)	other results
O=C(N[C@@H]1c2ccccc2CC[C@H]1c1cccc(O)c1)C(c1ccccc1)c1ccccc1 (relative stereo) [Example 3D]	98%	0%	
CCCCCCCC/C=C\CCCCCCCC(=O)N[C@H]1c2ccccc2OC[C@@H]1c1ccccc1 (relative stereo) [Example 2O]	87%		
O=C(N[C@@H]1c2ccccc2C[C@H]1c1ccc(O)cc1)C(c1ccccc1)c1ccccc1 (relative stereo) [Example 3E]	99%	-52%	
O=C(N[C@H]1c2ccccc2C[C@@H]1c1ccc([N+](=O)[O-])cc1)C(c1ccccc1)c1ccccc1 (relative stereo) [Example 2J]	-12%		
COc1ccc2c(c1)C[C@H](c1ccccc1)[C@H]2NC(=O)C(c1ccccc1)c1ccccc1 (relative stereo) [Example 2K]	90%		change in vivo at 25 mg/kg (cholesteryl esters): 17%
O=C(N[C@@H]1c2c(O)cccc2C[C@@H]1c1ccccc1)C(c1ccccc1)c1ccccc1 (relative stereo) [Example 3X]	97%		
O=C(N[C@@H]1c2ccccc2CCC[C@@H]1c1ccc(O)cc1)C(c1ccccc1)c1ccccc1 (relative stereo) [Example 3R]		0%	
O=C(N[C@@H]1c2cc(O)ccc2C[C@@H]1c1ccccc1)C(c1ccccc1)c1ccccc1 (relative stereo) [Example 3W]	84%	14%	
O=C(N[C@@H]1c2cc(O)ccc2CC[C@H]1c1ccc(O)cc1)C(c1ccccc1)c1ccccc1 (relative stereo) [Example 3U]		-97%	change in vivo at 10 mg/kg (cholesteryl esters; 10 mpk): -60%; change in vivo at 30 mg/kg (cholesteryl esters; 30 mpk): -86%
O=C(N[C@@H]1c2ccccc2C[C@@H]1c1cc(Cl)c(O)c(Cl)c1)C(c1ccccc1)c1ccccc1 (relative stereo) [Example 8A, cis-N-[2-(3',5'-dichloro-4'-hydroxyphenyl)indanyl]-α-phenylbenzeneacetamide]	99%	-14%	
CCCCCCCC/C=C\CCCCCCCC(=O)N[C@H]1c2ccccc2CC[C@H]1c1ccccc1 (relative stereo) [Example 2L]	66%		
COc1ccc([C@H]2CCc3ccc(OC)cc3[C@@H]2NC(=O)C(c2ccccc2)c2ccccc2)cc1 (relative stereo) [Example 1R]		0%	
COc1ccc2c(c1)C[C@@H](c1ccccc1)[C@H]2NC(=O)C(c1ccccc1)c1ccccc1 (relative stereo) [Example 2R]	75%	0%	
COc1ccc2c(c1)[C@H](NC(=O)C(c1ccccc1)c1ccccc1)[C@H](c1ccccc1)C2 (relative stereo) [Example 2Q]	16%		
O=C(N[C@@H]1c2cc(O)ccc2CC[C@@H]1c1ccc(O)cc1)C(c1ccccc1)c1ccccc1 (relative stereo) [Example 3V]		0%	
O=C(N[C@H]1c2ccccc2C[C@H]1c1ccccc1)C(c1ccccc1)c1ccccc1 (relative stereo) [Example 2S]	83%	16%	
O=C(N[C@@H]1c2c(O)cccc2CC[C@H]1c1ccccc1)C(c1ccccc1)c1ccccc1 (relative stereo) [Example 3CC]		-20%	
COc1ccccc1[C@H]1CCc2ccccc2[C@@H]1NC(=O)C(c1ccccc1)c1ccccc1 (relative stereo) [Example 1B]		21%	
O=C(N[C@@H]1c2cccc(O)c2CC[C@@H]1c1ccccc1)C(c1ccccc1)c1ccccc1 (relative stereo) [Example 3T]		0%	
O=C(N[C@@H]1c2ccc(O)cc2C[C@@H]1c1ccccc1)C(c1ccccc1)c1ccccc1 (relative stereo) [Example 3K]	54%	0%	
COc1ccc([C@@H]2Cc3ccccc3[C@@H]2NC(=O)C(c2ccccc2)c2ccccc2)cc1 (relative stereo) [Example 2, cis-N-[2-(4'-methoxyphenyl)indanyl]-α-phenylbenzeneacetamide]	96%	-17%	

SMILES	ACAT % Inhibition (ACAT)	change in vivo at 50 mg/kg (cholesteryl esters)	other results
Nc1ccc([C@H]2CCc3ccccc3[C@@H]2NC(=O)C(c2ccccc2)c2ccccc2)cc1 (relative stereo) [Example 2P]			change in vivo at 25 mg/kg (cholesteryl esters): -15%
O=C(N[C@H]1c2ccccc2C[C@@H]1c1cccc([N+](=O)[O-])c1)C(c1ccccc1)c1ccccc1 (relative stereo) [Example 2D]	90%		
O=C(N[C@@H]1c2ccccc2CC[C@H]1c1ccc(O)cc1)C(c1ccccc1)c1ccccc1 (relative stereo) [Example 3G]	93%	-57%	change in vivo at 25 mg/kg (cholesteryl esters): -43%
O=C(N[C@@H]1c2ccccc2CC[C@@H]1c1cccc(O)c1)C(c1ccccc1)c1ccccc1 (relative stereo) [Example 3C]	77%	0%	
O=C(N[C@@H]1c2cc(O)ccc2CC[C@H]1c1ccccc1)C(c1ccccc1)c1ccccc1 (single isomer, unassigned) [Example 3Y]	83%		
COc1cccc([C@H]2Cc3ccccc3[C@@H]2NC(=O)C(c2ccccc2)c2ccccc2)c1 (relative stereo) [Example 2B]	94%		
O=C(N[C@@H]1c2ccccc2CC[C@H]1c1ccccc1O)C(c1ccccc1)c1ccccc1 (relative stereo) [Example 3A]		0%	
COc1ccc2c(c1)[C@H](NC(=O)C(c1ccccc1)c1ccccc1)[C@@H](c1ccccc1)C2 (relative stereo) [Example 2T]	15%		
O=C(N[C@@H]1c2ccccc2CCC[C@H]1c1ccc(O)cc1)C(c1ccccc1)c1ccccc1 (relative stereo) [Example 3J]		-61%	
O=C(N[C@H]1c2ccccc2CC[C@@H]1c1ccncc1)C(c1ccccc1)c1ccccc1 (relative stereo) [Example 1J]		-39%	
Nc1ccc([C@@H]2Cc3ccccc3[C@H]2NC(=O)C(c2ccccc2)c2ccccc2)cc1 (relative stereo) [Example 5, trans-N-[2-(4'-aminophenyl)indanyl]-α-phenylbenzeneacetamide]	94%		
COc1cccc([C@H]2CCc3ccccc3[C@@H]2NC(=O)C(c2ccccc2)c2ccccc2)c1 (relative stereo) [Example 1D]		0%	
COc1ccc([C@@H]2CCc3ccccc3[C@@H]2NC(=O)C(c2ccccc2)c2ccccc2)cc1 (relative stereo) [Example 1, cis-N-[-2-(4'-methoxyphenyl)-1,2,3,4-tetrahydronaphthalen-1-yl]-α-phenylbenzeneacetamide]		0%	
O=C(N[C@@H]1c2cc(O)ccc2CC[C@H]1c1ccccc1)C(c1ccccc1)c1ccccc1 (single isomer, unassigned) [Example 3Z]	92%		
O=C(N[C@@H]1c2cccc(O)c2CC[C@H]1c1ccccc1)C(c1ccccc1)c1ccccc1 (relative stereo) [Example 3S]		0%	
O=C(N[C@@H]1c2ccccc2C[C@@H]1c1ccc(O)cc1)C(c1ccccc1)c1ccccc1 (single isomer, unassigned) [Example 3BB]	< 0%		
COc1ccc([C@H]2CCc3ccccc3[C@@H]2NC(=O)C(c2ccccc2)c2ccccc2)cc1 (relative stereo) [Example 1G]		0%	
COc1ccc([C@H]2CCCc3ccccc3[C@@H]2NC(=O)C(c2ccccc2)c2ccccc2)cc1 (relative stereo) [Example 1I]	63%		
O=C(N[C@H]1c2ccccc2C[C@H]1c1ccc([N+](=O)[O-])cc1)C(c1ccccc1)c1ccccc1 (relative stereo) [Example 2I]	51%		
O=C(N[C@@H]1c2ccc(O)cc2C[C@H]1c1ccccc1)C(c1ccccc1)c1ccccc1 (relative stereo) [Example 3L]	93%		

From patent publication US5416118A, “Bicyclic amides as inhibitors of acyl-coenzyme A: cholesterol acyl transferase” (Schering Corporation, priority 1993, dated 1995)
